Results on twelve compounds are retold here after patent publication US8063071B2 (GlaxoSmithKline, LLC, priority 2007, dated 2011).

This assay has as its target T1, Recombinant human IKKβ (residues 1-737) (Homo sapiens, UniProt O14920).
T1 construct: Recombinant human IKKβ (residues 1-737); GST (C); made in house
T1 sequence (O14920 1-737): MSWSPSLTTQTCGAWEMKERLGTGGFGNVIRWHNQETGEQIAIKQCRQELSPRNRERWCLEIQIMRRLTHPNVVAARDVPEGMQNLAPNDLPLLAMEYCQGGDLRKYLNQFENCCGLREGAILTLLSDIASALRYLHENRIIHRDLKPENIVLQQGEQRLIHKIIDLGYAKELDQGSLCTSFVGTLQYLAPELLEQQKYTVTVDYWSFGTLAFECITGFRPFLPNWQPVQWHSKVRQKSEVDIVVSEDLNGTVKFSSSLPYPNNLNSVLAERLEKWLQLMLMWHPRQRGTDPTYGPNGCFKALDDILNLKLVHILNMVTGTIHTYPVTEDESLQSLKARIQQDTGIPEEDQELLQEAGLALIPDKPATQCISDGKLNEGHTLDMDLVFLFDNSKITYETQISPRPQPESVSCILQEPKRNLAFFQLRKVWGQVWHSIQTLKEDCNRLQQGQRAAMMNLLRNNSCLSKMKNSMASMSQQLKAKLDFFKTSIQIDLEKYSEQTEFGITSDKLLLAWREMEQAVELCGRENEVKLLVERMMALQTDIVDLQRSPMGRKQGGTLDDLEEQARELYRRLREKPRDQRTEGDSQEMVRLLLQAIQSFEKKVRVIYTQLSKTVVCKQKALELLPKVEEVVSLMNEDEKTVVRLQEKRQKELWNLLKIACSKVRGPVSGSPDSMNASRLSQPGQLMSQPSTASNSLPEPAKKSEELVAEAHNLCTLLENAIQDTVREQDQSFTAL
As to the kind of experiment: IKK2 assay (TR-FRET). Type of assay: biochemical. As to conditions: ATP 1 μM final, read-out: pIC50 against IKK2 (converted). The protocol: Recombinant human IKKβ (residues 1-737) was expressed in baculovirus as a C-terminal GST-tagged fusion protein, and its activity was assessed using a time-resolved fluorescence resonance energy transfer (TR-FRET) assay. Briefly, IKK2 (0.5 nM-5 nM final) diluted in assay buffer (50 mM HEPES, 10 mM MgCl2, 1 mM CHAPS pH 7.4 with 1 mM DTT and 0.01% w/v BSA) was added to wells containing various concentrations of compound or DMSO vehicle (1.7% final). The reaction was initiated by the addition of GST-IB substrate (25 nM final)/ATP (1 μM final), in a total volume of 6 μl. The reaction was incubated for 15 minutes at room temperature, then terminated by the addition of 3 μl of detection reagent in buffer containing 50 mM EDTA (100 mM HEPES pH 7.4, 150 mM NaCl, 50 mM EDTA and 0.01% w/v BSA) containing antiphosphoserine-IB-32/36 monoclonal antibody 12C2 (Cell Signalling Technology, Beverly Mass., USA) labelled with W-1024 europium chelate (Wallac OY, Turku, Finland), and an APC-labelled anti-GST antibody (Prozyme, San Leandro, Calif., USA) was added and the reaction was further incubated for 60 minutes at room temperature. The degree of phosphorylation of GST-IB was measured using a BMG Rubystar plate reader (BMG Labtech, Aylesbury, UK) as a ratio of specific 665 nm energy transfer signal to reference europium 620 nm signal.

Where a name gives a salt, the structure may show the parent alone.

For `CCS(=O)(=O)N1CCC(c2c[nH]c3c(C(N)=O)cc(-c4cccc(CN)c4)cc23)CC1` [Example 14, 5-[3-(aminomethyl)phenyl]-3-[1-(ethylsulfonyl)-4-piperidinyl]-1H-indole-7-carboxamide], the IC50 is no more than 10 µM. Turning to `CCS(=O)(=O)N1CCC(c2c[nH]c3c(C(N)=O)cc(-c4cc(C#N)cc(CNCC(F)(F)F)c4)cc23)CC1` [Example 41, 5-(3-cyano-5-{[(2,2,2-trifluoroethyl)amino]methyl}phenyl)-3-[1-(ethylsulfonyl)-4-piperidinyl]-1H-indole-7-carboxamide trifluoroacetate], the IC50 was no more than 10 µM. As to `CCS(=O)(=O)N1CCC(c2c[nH]c3c(C(N)=O)cc(-c4cc(CN(C)C)c(OC)c(OC)c4)cc23)CC1` [Example 51, 5-[3-[(dimethylamino)methyl]-4,5-bis(methyloxy)phenyl]-3-[1-(ethylsulfonyl)-4-piperidinyl]-1H-indole-7-carboxamide], the IC50 was no more than 10 µM. `CCS(=O)(=O)N1CCC(c2c[nH]c3c(C(N)=O)cc(-c4cc(CNC(C)C)c(OC)c(OC)c4)cc23)CC1` [Example 53, 3-[1-(ethylsulfonyl)-4-piperidinyl]-5-[3-{[(1-methylethyl)amino]methyl}-4,5-bis(methyloxy)phenyl]-1H-indole-7-carboxamide]: the IC50 was no more than 10 µM. Regarding `CCS(=O)(=O)N1CCC(c2c[nH]c3c(C(N)=O)cc(-c4cc(CNC)c(OC)c(OC)c4)cc23)CC1` [Example 54], the IC50 is no more than 10 µM. On to `CCS(=O)(=O)N1CCC(c2c[nH]c3c(C(N)=O)cc(-c4cc(CNCC(C)(C)C)c(OC)c(OC)c4)cc23)CC1` [Example 55, 5-[3-{[(2,2-dimethylpropyl)amino]methyl}-4,5-bis(methyloxy)phenyl]-3-[1-(ethylsulfonyl)-4-piperidinyl]-1H-indole-7-carboxamide], for which the IC50 was no more than 10 µM. As to `CCS(=O)(=O)N1CCC(c2c[nH]c3c(C(N)=O)cc(-c4cc(CN(C)CCO)c(OC)c(OC)c4)cc23)CC1` [Example 56, 3-[1-(ethylsulfonyl)-4-piperidinyl]-5-[3-{[(2-hydroxyethyl)(methyl)amino]methyl}-4,5-bis(methyloxy)phenyl]-1H-indole-7-carboxamide], the IC50 was no more than 10 µM. Turning to `CCS(=O)(=O)N1CCC(c2c[nH]c3c(C(N)=O)cc(-c4cc(CN5CCCC5)c(OC)c(OC)c4)cc23)CC1` [Example 57, 5-[3,4-bis(methyloxy)-5-(1-pyrrolidinylmethyl)phenyl]-3-[1-(ethylsulfonyl)-4-piperidinyl]-1H-indole-7-carboxamide], the IC50 is no more than 10 µM.

As to `CCS(=O)(=O)N1CCC(c2c[nH]c3c(C(N)=O)cc(-c4csc(CN5CCCC5CC(C)C)c4)cc23)CC1` (stereo not drawn) [Example 93, 3-[1-(ethylsulfonyl)-4-piperidinyl]-5-(5-{[2-(2-methylpropyl)-1-pyrrolidinyl]methyl}-3-thienyl)-1H-indole-7-carboxamide trifluoroacetate], the IC50 is no more than 10 µM. Consider `CCS(=O)(=O)N1CCC(c2c[nH]c3c(C(N)=O)cc(-c4ccc(N5CCNCC5)nc4)cc23)CC1` [Example 135, 3-[1-(ethylsulfonyl)-4-piperidinyl]-5-[6-(1-piperazinyl)-3-pyridinyl]-1H-indole-7-carboxamide trifluoroacetate], for which the IC50 was no more than 10 µM. For `CCC(CC)NCc1ccc(-c2cc(C(N)=O)c3[nH]cc(C4CCN(S(=O)(=O)CC)CC4)c3c2)cc1` [Example 142, 5-(4-{[(1-ethylpropyl)amino]methyl}phenyl)-3-[1-(ethylsulfonyl)-4-piperidinyl]-1H-indole-7-carboxamide], the IC50 was no more than 10 µM.

Regarding `CCNCc1ccc(-c2cc(C(N)=O)c3[nH]cc(C4CCN(S(=O)(=O)CC)CC4)c3c2)cc1` [Example 145, 5-{4-[(ethylamino)methyl]phenyl}-3-[1-(ethylsulfonyl)-4-piperidinyl]-1H-indole-7-carboxamide], the IC50 was no more than 10 µM.
